Literature values in patent US20110207832A1, “SKIN DISINFECTANT COMPOSITION AND METHODS FOR MANUFACTURING AND USING” (Skinvisible Pharmaceuticals, Inc., priority 2010, published 2011).

Key:
[1] = in vivo

| Compound | water solubility (in words) | dermal toxicity [1] |
| --- | --- | --- |
| [H]/N=C(\N/C(=N/[H])NCCCCCCNC(=N)NC(=N)Nc1ccc(Cl)cc1)Nc1ccc(Cl)cc1 [chlorhexidine, 1,6-di(4-chlorophenyl-diguanido) hexane] | practically insoluble in water | – |
| Poly(vinylpyrrolidone/1-eicosene) [PVPE] | – | no demonstrable dermal toxicity |
| Poly(vinylpyrrolidone/1-hexadecene) [PVPH] | – | no demonstrable dermal toxicity |
